Assay [1] deals with T1, BRAF V600E (Homo sapiens, UniProt P15056, V600E).
T1 construct: expressed in transfected cells
The assay is described as follows: Cellular assay of target protein degradation, T-Rex 293 cells stably transfected with HA-BRAF_V600E (HA immunofluorescence, high content imaging). Format: cell-based. In outline: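 Degradation of the HA-tagged construct is measured after 24 h treatment at 37 °C across 1 μM to 0.1 nM in 0.1% DMSO, in doxycycline-induced (1 ng/mL) cells. DC50 and Dmax come from HA fluorescence imaging.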

Assay [2] has as its target T2, BRAF G466V (Homo sapiens, UniProt P15056, G466V).
T2 construct: expressed in transfected cells
The assay is described as follows: Cellular assay of target protein degradation, T-Rex 293 cells stably transfected with HA-BRAF G466V (HA immunofluorescence, high content imaging). Format: cell-based. In short, it runs like this: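 Dose range spans 30 nM to 3 pM (0.1% DMSO) over 24 hours at 37° C, in cells induced with 0.75 ng/mL doxycycline. Fixed cells are probed with anti-HA antibody overnight at 4° C, then imaged; half-maximal degradation and maximum degradation are derived.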

Setting [3] is: maximum degradation observed, T-Rex 293 HA-BRAF V600E.
Where [4] appears, read: maximum degradation observed, T-Rex 293 HA-BRAF G466V.
[5] abbreviates: half maximal degradation, T-Rex 293 HA-BRAF V600E; read-out: BRaf V600E DC50.
Setting [6] is: half maximal degradation, T-Rex 293 HA-BRAF G466V; read-out: BRaf G466V DC50.

Like-named read-outs stand apart in the source and are kept apart here.

T2 sequence (P15056 whole entry G466V): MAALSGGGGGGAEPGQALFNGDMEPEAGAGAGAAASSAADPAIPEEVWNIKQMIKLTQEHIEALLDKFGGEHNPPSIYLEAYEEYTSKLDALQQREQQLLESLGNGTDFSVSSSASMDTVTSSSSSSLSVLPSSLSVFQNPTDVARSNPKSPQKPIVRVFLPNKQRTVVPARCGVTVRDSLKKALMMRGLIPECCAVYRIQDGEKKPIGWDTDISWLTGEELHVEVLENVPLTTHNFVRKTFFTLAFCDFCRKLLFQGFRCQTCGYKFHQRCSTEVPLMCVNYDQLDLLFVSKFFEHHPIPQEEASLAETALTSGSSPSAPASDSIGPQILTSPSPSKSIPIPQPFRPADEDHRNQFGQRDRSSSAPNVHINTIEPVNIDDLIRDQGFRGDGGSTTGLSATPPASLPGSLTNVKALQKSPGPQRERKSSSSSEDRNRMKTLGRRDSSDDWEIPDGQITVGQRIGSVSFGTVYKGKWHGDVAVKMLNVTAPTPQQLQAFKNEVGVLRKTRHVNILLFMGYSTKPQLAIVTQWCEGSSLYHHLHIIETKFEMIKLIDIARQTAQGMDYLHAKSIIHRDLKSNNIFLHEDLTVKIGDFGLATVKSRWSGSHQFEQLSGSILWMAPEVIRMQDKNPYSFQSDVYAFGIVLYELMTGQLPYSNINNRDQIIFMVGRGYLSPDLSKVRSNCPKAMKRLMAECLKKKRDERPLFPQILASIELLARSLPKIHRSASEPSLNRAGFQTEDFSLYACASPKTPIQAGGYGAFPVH
T1 sequence (P15056 whole entry V600E): as the sequence (P15056 whole entry G466V) above, with V466G, V600E counted along it

With `O=C1CCC(N2Cc3cc(N4CCC(CN5CCCN(c6ccc(-c7cnc8[nH]cc(C(=O)c9c(F)ccc(NS(=O)(=O)N%10CC[C@@H](F)C%10)c9F)c8c7)cc6)CC5)CC4)ccc3C2=O)C(=O)N1` (stereo partly drawn) [Compound 322, (3R)-N-[3-(5-{4-[4-({1-[2-(2,6-dioxopiperidin-3-yl)-1-oxo-2,3-dihydro-1H-isoindol-5-yl]piperidin-4-yl}methyl)-1,4-diazepan-1-yl]phenyl}-1H-pyrrolo[2,3-b]pyridine-3-carbonyl)-2,4-difluorophenyl]-3-fluoropyrrolidine-1-sulfonamide], the greatest degradation seen (Dmax) (usually the greatest extent of degradation seen) in assay [1] (setting [3]) was below 35%; in assay [2] (setting [4]) it was 35 to 70%. The DC50 (as a rule, the concentration at which degradation of the target reaches its halfway point) in assay [1] (read-out: BRaf V600E DC50; half maximal degradation, T-Rex 293 HA-BRAF V600E) fell in the range of 50 to 500 nM; in assay [2] (read-out: BRaf G466V DC50; half maximal degradation, T-Rex 293 HA-BRAF G466V) it was 1 to 10 nM.
On to `O=C1CCC(N2C(=O)c3ccc(C4CCN(CC5CCN(c6ccc(-c7cnc8[nH]cc(C(=O)c9c(F)ccc(NS(=O)(=O)N%10CC[C@@H](F)C%10)c9F)c8c7)cc6)CC5)CC4)cc3C2=O)C(=O)N1` (stereo partly drawn) [Compound 323, (3R)-N-[3-(5-{4-[4-({4-[2-(2,6-dioxopiperidin-3-yl)-1,3-dioxo-2,3-dihydro-1H-isoindol-5-yl]piperidin-1-yl}methyl)piperidin-1-yl]phenyl}-1H-pyrrolo[2,3-b]pyridine-3-carbonyl)-2,4-difluorophenyl]-3-fluoropyrrolidine-1-sulfonamide], for which the results for the DC50 in assay [1] (setting [5]) and in assay [2] (setting [6]) were 50 to 500 nM and 10 to 30 nM, respectively. For the same compound, the figures for the Dmax in assay [1] (setting [3]) and in assay [2] (setting [4]) were below 35% and 35 to 70%, respectively.
The matching figures for `O=C1CCC(N2Cc3cc(N4CCCN(CC5CCN(c6ccc(-c7cnc8[nH]cc(C(=O)c9c(F)ccc(NS(=O)(=O)N%10CC[C@@H](F)C%10)c9F)c8c7)cc6)CC5)CC4)ccc3C2=O)C(=O)N1` (stereo partly drawn) [Compound 324, (3R)-N-[3-(5-{4-[4-({4-[2-(2,6-dioxopiperidin-3-yl)-1-oxo-2,3-dihyrdo-1H-isoindol-5-yl]-1,4-diazepan-1-yl}methyl)piperidin-1-yl]phenyl}-1H-pyrrolo[2,3-b]pyridine-3-carbonyl)-2,4-difluorophenyl]-3-fluoropyrrolidine-1-sulfonamide]: 5 to 50 nM, 1 to 10 nM, below 35% and above 70%.
The matching figures for `O=C1CCC(N2Cc3cc(CCCCN4CCN(c5ccc(-c6cnc7[nH]cc(C(=O)c8c(F)ccc(NS(=O)(=O)N9CC[C@@H](F)C9)c8F)c7c6)cc5)CC4)ccc3C2=O)C(=O)N1` (stereo partly drawn) [Compound 325, (3R)-N-(3-{5-[4-(4-{4-[2-(2,6-dioxopiperidin-3-yl)-1-oxo-2,3-dihydro-1H-isoindol-5-yl]butyl}piperazin-1-yl)phenyl]-1H-pyrrolo[2,3-b]pyridine-3-carbonyl}-2,4-difluorophenyl)-3-fluoropyrrolidine-1-sulfonamide]: 5 to 50 nM, 1 to 10 nM, 35 to 70% and above 70%.
For `O=C1CCC(N2Cc3cc(C4CCN(C5CCN(c6ccc(-c7cnc8[nH]cc(C(=O)c9c(F)ccc(NS(=O)(=O)N%10CC[C@@H](F)C%10)c9F)c8c7)cc6)CC5)CC4)ccc3C2=O)C(=O)N1` (stereo partly drawn) [Compound 326, (3R)-N-{3-[5-(4-{4-[2-(2,6-dioxopiperidin-3-yl)-1-oxo-2,3-dihydro-1H-isoindol-5-yl]-[1,4′-bipiperidin]-1′-yl}phenyl)-1H-pyrrolo[2,3-b]pyridine-3-carbonyl]-2,4-difluorophenyl}-3-fluoropyrrolidine-1-sulfonamide], the DC50 in assay [1] (setting [5]) is 5 to 50 nM; in assay [2] (setting [6]), below 1 nM. Moreover, the Dmax is 35 to 70% in assay [1] (setting [3]) and above 70% in assay [2] (setting [4]).
For `O=C1CC[C@H](N2Cc3cc(CC[C@@H](O)CN4CC5(C4)CN(c4ccc(-c6cnc7[nH]cc(C(=O)c8c(F)ccc(NS(=O)(=O)N9CC[C@@H](F)C9)c8F)c7c6)cc4)C5)ccc3C2=O)C(=O)N1` [Compound 327, (3R)-N-{3-[5-(4-{6-[(2R)-4-{2-[(3)S-2,6-dioxopiperidin-3-yl]-1-oxo-2,3-dihydro-1H-isoindol-5-yl}-2-hydroxybutyl]-2,6-diazaspiro[3.3]heptan-2-yl}phenyl)-1H-pyrrolo[2,3-b]pyridine-3-carbonyl]-2,4-difluorophenyl}-3-fluoropyrrolidine-1-sulfonamide] the same measures were 5 to 50 nM, 1 to 10 nM, 35 to 70% and above 70%.
The matching figures for `O=C1CC[C@@H](N2Cc3cc(CC[C@@H](O)CN4CC5(C4)CN(c4ccc(-c6cnc7[nH]cc(C(=O)c8c(F)ccc(NS(=O)(=O)N9CC[C@@H](F)C9)c8F)c7c6)cc4)C5)ccc3C2=O)C(=O)N1` [Compound 328, (3R)-N-{3-[5-(4-{6-[(2R)-4-{2-[(3R)-2,6-dioxopiperidin-3-yl]-1-oxo-2,3-dihydro-1H-isoindol-5-yl}-2-hydroxybutyl]-2,6-diazaspiro[3.3]heptan-2-yl}phenyl)-1H-pyrrolo[2,3-b]pyridine-3-carbonyl]-2,4-difluorophenyl}-3-fluoropyrrolidine-1-sulfonamide]: 5 to 50 nM, 1 to 10 nM, 35 to 70% and above 70%.
Consider `O=C1CCC(N2Cc3cc(N4CCC(CN5CC[C@H]6[C@@H](C5)CN6c5ccc(-c6cnc7[nH]cc(C(=O)c8c(F)ccc(NS(=O)(=O)N9CC[C@@H](F)C9)c8F)c7c6)cc5)CC4)ccc3C2=O)C(=O)N1` (stereo partly drawn) [Compound 329, (3R)-N-[3-(5-{4-[(1S,6S)-3-({1-[2-(2,6-dioxopiperidin-3-yl)-1-oxo-2,3-dihydro-1H-isoindol-5-yl]piperidin-4-yl}methyl)-3,7-diazabicyclo[4.2.0]octan-7-yl]phenyl}-1H-pyrrolo[2,3-b]pyridine-3-carbonyl)-2,4-difluorophenyl]-3-fluoropyrrolidine-1-sulfonamide], for which the 50% degradation concentration (DC50) in assay [1] (setting [5]) lay in the range of 5 to 50 nM; in assay [2] (setting [6]), 1 to 10 nM. Besides, the maximal degradation (Dmax) in assay [1] (setting [3]) is 35 to 70%; in assay [2] (setting [4]) it was above 70%.
For `O=C1CCC(N2Cc3cc(N4CCC(CN5CC(C6CN(c7ccc(-c8cnc9[nH]cc(C(=O)c%10c(F)ccc(NS(=O)(=O)N%11CC[C@@H](F)C%11)c%10F)c9c8)cc7)C6)C5)CC4)ccc3C2=O)C(=O)N1` (stereo partly drawn) [Compound 330, (3R)-N-[3-(5-{4-[1′-({1-[2-(2,6-dioxopiperidin-3-yl)-1-oxo-2,3-dihydro-1H-isoindol-5-yl]piperidin-4-yl}methyl)-[3,3′-biazetidin]-1-yl]phenyl}-1H-pyrrolo[2,3-b]pyridine-3-carbonyl)-2,4-difluorophenyl]-3-fluoropyrrolidine-1-sulfonamide] the same measures were 5 to 50 nM, 1 to 10 nM, 35 to 70% and above 70%.
For `COc1cc(OCCCCN2CCN(c3ccc(-c4cnc5[nH]cc(C(=O)c6c(F)ccc(NS(=O)(=O)N7CC[C@@H](F)C7)c6F)c5c4)cc3)CC2)cc2c1C(=O)N(C1CCC(=O)NC1=O)C2` (stereo partly drawn) [Compound 331, (3R)-N-[3-(5-{4-[4-(4-{[2-(2,6-dioxopiperidin-3-yl)-7-methoxy-1-oxo-2,3-dihydro-1H-isoindol-5-yl]oxy}butyl)piperazin-1-yl]phenyl}-1H-pyrrolo[2,3-b]pyridine-3-carbonyl)-2,4-difluorophenyl]-3-fluoropyrrolidine-1-sulfonamide], the DC50 in assay [1] (setting [5]) was in the range of 5 to 50 nM; in assay [2] (setting [6]), 1 to 10 nM. Besides, the Dmax in assay [1] (setting [3]) and in assay [2] (setting [4]) was 35 to 70% in each case.

The values above are taken from US12180193B2, “Accelerating fibrosarcoma protein degrading compounds and associated methods of use” (Arvinas Operations, Inc., priority 2020, dated 2024).
